From publication PMC4055595, “Pharmacokinetic Compatibility of Ginsenosides and Schisandra Lignans in Shengmai-san: From the Perspective of P-Glycoprotein” (PLoS ONE, 2014)
Read-outs that look alike come from different tables or passages of the source.

What was measured:
[1] = Rat plasma pharmacokinetics after 10-day vehicle/SLE and digoxin or GE; assay type: in vivo, Sprague-Dawley rats; details: for AUC(0-inf): read-out: AUCINF_obs; for MRT inf: read-out: MRTINF_obs
Method: This study was carried out in strict accordance with the recommendations in the Guide for the Care and Use of Laboratory Animals of the National Institutes of Health. The protocol was approved by the Committee on the Ethics of Animal Experiments of the China Pharmaceutical University. All surgery was performed under sodium pentobarbital anesthesia, and all efforts were made to minimize suffering. […] The rats were fed with standard laboratory food and water and fasted overnight but with free access to water before the test. To evaluate the effect of long-term treatment with SLE on the pharmacokinetics of ginsenosides, 24 rats were also divided into four groups (group I∼ group IV) with 6 animals each. […] On the 11th day, digoxin was administered intragastrically to rats (group I and group II) at a single dose of 0.5 mg/kg, GE was administered intragastrically to rats (group III and group IV) at a single dose of 120 mg/kg. […] Plasma was obtained by centrifugation at 5000 g for 10 min and stored at −20°C before analysis. The plasma / cell samples were extracted using a liquid–liquid extraction technique. To each tube containing 100 µL plasma, 10 µL internal standard (digoxin, 1.0 µg/mL) and 1.0 mL of n-butanol were added. The mixture was then vortex-extracted for 2 min, and centrifuged for 10 min at 10,000 g. […] The plasma concentration-time curves of ginsenosides in rats were obtained by plotting the mean plasma concentrations versus time. Pharmacokinetic parameters were calculated using the WinNonlin 6.3 program (Pharsight Inc., Mountain View, CA). The elimination half-life (t 1/2) value was calculated as 0.693/β, where β is the elimination rate constant calculated from the terminal linear portion of the log plasma concentration-time curve. The total areas under the plasma concentration- time curve from time 0 to the last quantifiable time point (AUC0-t) and from time 0 to infinity (AUC0-∞) were calculated using the log trapezoidal rule. [drawing 3] The maximum plasma concentrations (C max) for ginsenosides were obtained by visual inspection of the plasma concentration-time curve, whereas the initial drug concentration (the extrapolated concentration at zero time) of the drug after intravenous injection was calculated by back-extrapolation of the plasma concentration-time curve to the y-axis.

[2] = tested on: LLC-PK1 cells (lacking P-gp); assay: Uptake (intracellular accumulation) of digoxin and ginsenosides in LLC-PK1 cells; assay type: in vitro ADME; details: for Effect of verapamil on intracellular accumulation: 10 µM verapamil; for Effect of SLE on intracellular accumulation: SLE 2.0 and 10.0 µg/mL
Method: (§1) LLC-PK1 cells, a cell line lacking P-gp, and the derived cell line L-MDR1, which over-express human MDR1-encoded P-gp, were grown in minimum essential medium with supplements at 37°C, 5% CO2, and 95% humidity. LLC-PK1 and L-MDR1 cells were seeded at a density of 12×10^6 cells per 150-cm^2 flask and grown for 7 days in medium 199 supplemented with 2 mM glutamine, 10% fetal bovine serum, 10 mg/500 mL of streptomycin, and 10,000 IU/500 mL of penicillin. To ensure a constant expression level of transport protein, L-MDR1 cells were grown in the presence of 640 nM vincristine. Cells were grown as monolayer on polycarbonate membrane filters (Transwell; Costar Corporation, Cambridge, MA) as outlined previously. Transepithelial resistance was measured in each well using a Millicell ERS ohmmeter (Millipore, Bedford, MA); wells registering a resistance of 200 ohms or greater, after correcting for the resistance obtained in control blank wells, were used in the transport experiments.
(§2) LLC-PK1 and L-MDR1 cells were incubated with SLE (2.0 and 10.0 µg/mL) or verapamil (10 µM) for 1.0 h, and then were washed to discard SLE or verapamil before adding 100 µg/mL of GE. The accumulation of GE lasted for 2 h, and the intracellular concentrations of ginsenosides were measured by LC/MS. All experiments were conducted in triplicate.

[3] = target: human MDR1-encoded P-gp (L-MDR1 cells) (Homo sapiens, UniProt P08183); assay: Transport of digoxin and ginsenosides across L-MDR1 cell monolayers (efflux ratio); assay type: in vitro ADME; details: for P-gp substrate classification: summary of transport/uptake in LLC-PK1, L-MDR1 and Caco-2 cells with verapamil; for Effect of verapamil on efflux ratio / Papp / Effect of SLE on efflux ratio / transport: L-MDR1 cells; for Effect of verapamil on efflux ratio / Papp: 10 µM verapamil; for Effect of SLE on efflux ratio / transport: SLE 2.0 and 10.0 µg/mL
Method: as §1
(§3) The LLC-PK1 and L-MDR1 cells were washed with warm Hank's balanced salt solution HBSS (pH 7.4) twice before transport experiment. HBSS containing verapamil (10 µM), SLE (2.0 and 10.0 µg/mL) or blank HBSS (control) was then loaded into both apical and basolateral chambers. After incubation at 37°C for 1.5 h, GE (100 µg/mL) was added to either the apical or basolateral side to evaluate the transport in absorptive and secretive directions, respectively. The cell monolayer was then incubated for another 2 h. Finally, the concentrations of ginsenosides were determined by LC/MS. All experiments were conducted in triplicate.
(§4) For the transport assay, the apparent permeability (P app, cm/s) in each direction (A→B and B→A) was calculated as follows, where A is the surface area of the membrane inserts (0.0804 cm^2), C 0 is the initial concentration of the compound applied in the donor compartment (2 µM), and △Q is the amount (micromoles) of compound transported over time △t (5 h = 18,000 s): [drawing 1]
(§5) The efflux ratio (ER) was a dimensionless number calculated as the ratio of the apparent permeability in the B→A direction divided by the apparent permeability in the A→B direction. [drawing 2]

Caco-2 cells = assay: Uptake of digoxin and ginsenosides in Caco-2 cells; assay type: in vitro ADME, human; details: for Effect of verapamil on uptake: 10 µM verapamil; for Effect of SLE on intracellular concentration: SLE 2.0 and 10.0 µg/mL, P<0.01
Method: Caco-2 cells were purchased from American Type Culture Collection (Manassas, VA), and were routinely cultured in Dulbecco's modified Eagle's medium supplemented with 10% fetal bovine serum, 1% nonessential amino acids, 1 mM sodium pyruvate, and 100 U/mL penicillin and streptomycin (Invitrogen, Carlsbad, CA). The cells were grown in an atmosphere of 5% CO2 at 37°C, and cell medium was changed every other day. Cells were seeded at a density of 4×10^4 cells per well in 24-well microporous polycarbonate insert filter plates (0.4-µm pore size) (Corning Costar plates; Corning Life Sciences, Lowell, MA) and grown for 15 days in Caco-2 growth medium. The medium was replaced every 3 to 4 days. Before running the assay, the culture medium was replaced by HBSS buffer supplemented with 10 mM Hepes and 20 mM glucose.
as §2, with “Caco-2” for “LLC-PK1 and L-MDR1”, “h. Then the cells” for “h, and then”, “washed with Hank's” for “washed”, “the addition” for “adding 100 µg/mL”, “GE (100 µg/mL).” for “GE.”, “ginsenosides” for “GE”

P-gp (MDR1) = P-gp (MDR1) (Homo sapiens, UniProt P08183); assay: Transport of digoxin and ginsenosides across L-MDR1 cell monolayers (efflux ratio); assay type: in vitro ADME; details: human, read-out: Efflux ratio (Papp BL-AP / Papp AP-BL)
Method: as §1, §3, §4, §5

[4] = female, Sprague-Dawley, rat, plasma, po, rats, SLE 500 mg/kg ig once a day for 10 days, day 11 digoxin 0.5 mg/kg or GE 120 mg/kg ig
[5] = female, Sprague-Dawley, rat, plasma, po, rats, SLE 500 mg/kg ig once a day for 10 days, day 11 digoxin 0.5 mg/kg or GE 120 mg/kg ig, read-out: Tmax
[6] = female, Sprague-Dawley, rat, plasma, po, rats, SLE 500 mg/kg ig once a day for 10 days, day 11 digoxin 0.5 mg/kg or GE 120 mg/kg ig, read-out: t1/2 (converted)
[7] = female, Sprague-Dawley, rat, plasma, po, rats, control: vehicle once a day for 10 days, day 11 digoxin 0.5 mg/kg or GE 120 mg/kg ig
[8] = female, Sprague-Dawley, rat, plasma, po, rats, control: vehicle once a day for 10 days, day 11 digoxin 0.5 mg/kg or GE 120 mg/kg ig, read-out: t1/2 (converted)
[9] = rats, SLE 500 mg/kg ig once a day for 10 days, day 11 digoxin 0.5 mg/kg or GE 120 mg/kg ig
[10] = rats, SLE 500 mg/kg x 10 days vs vehicle, GE ig on day 11
[11] = rats, control: vehicle once a day for 10 days, day 11 digoxin 0.5 mg/kg or GE 120 mg/kg ig
[12] = LLC-PK1, pH 7.4, L-MDR1 cells, control (absence of verapamil), GE 100 µg/mL, 2 h
[13] = LLC-PK1, pH 7.4, with verapamil 10 µM, L-MDR1 cells, presence of 10 µM verapamil

Sequence of P-gp (MDR1) (P08183 whole entry): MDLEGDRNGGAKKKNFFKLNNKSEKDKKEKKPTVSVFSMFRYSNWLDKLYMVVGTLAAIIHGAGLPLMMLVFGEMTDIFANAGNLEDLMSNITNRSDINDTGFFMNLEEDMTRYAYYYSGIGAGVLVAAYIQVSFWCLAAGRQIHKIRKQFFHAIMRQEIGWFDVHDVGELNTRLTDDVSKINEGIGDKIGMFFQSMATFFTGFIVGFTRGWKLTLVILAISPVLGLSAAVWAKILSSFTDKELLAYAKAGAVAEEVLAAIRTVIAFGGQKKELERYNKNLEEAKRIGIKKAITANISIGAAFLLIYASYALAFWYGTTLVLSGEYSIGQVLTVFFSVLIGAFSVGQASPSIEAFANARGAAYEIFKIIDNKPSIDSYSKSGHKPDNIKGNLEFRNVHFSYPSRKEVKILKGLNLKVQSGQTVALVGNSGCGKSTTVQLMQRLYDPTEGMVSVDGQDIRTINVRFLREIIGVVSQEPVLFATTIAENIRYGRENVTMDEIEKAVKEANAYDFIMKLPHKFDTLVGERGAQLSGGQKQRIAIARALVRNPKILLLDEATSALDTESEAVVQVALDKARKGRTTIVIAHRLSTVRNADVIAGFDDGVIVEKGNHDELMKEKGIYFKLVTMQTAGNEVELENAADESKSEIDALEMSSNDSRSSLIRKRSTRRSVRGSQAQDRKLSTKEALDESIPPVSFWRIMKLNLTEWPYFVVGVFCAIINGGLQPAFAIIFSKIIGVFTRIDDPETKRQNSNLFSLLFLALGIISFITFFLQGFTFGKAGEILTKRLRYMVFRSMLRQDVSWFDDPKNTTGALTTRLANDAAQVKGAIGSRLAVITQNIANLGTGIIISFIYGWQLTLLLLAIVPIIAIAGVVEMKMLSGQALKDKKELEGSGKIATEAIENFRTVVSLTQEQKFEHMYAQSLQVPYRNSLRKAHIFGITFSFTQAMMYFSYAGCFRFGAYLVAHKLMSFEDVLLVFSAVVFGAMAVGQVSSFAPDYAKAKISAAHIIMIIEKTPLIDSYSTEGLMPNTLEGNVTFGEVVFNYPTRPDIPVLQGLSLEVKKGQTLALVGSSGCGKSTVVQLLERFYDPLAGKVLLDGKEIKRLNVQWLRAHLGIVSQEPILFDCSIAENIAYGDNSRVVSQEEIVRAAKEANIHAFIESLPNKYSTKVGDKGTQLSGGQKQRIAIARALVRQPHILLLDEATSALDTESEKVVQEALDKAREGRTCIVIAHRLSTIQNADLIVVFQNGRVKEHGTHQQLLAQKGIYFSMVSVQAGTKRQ
Sequence of human MDR1-encoded P-gp (L-MDR1 cells) (P08183 whole entry): as above

CC(C)=CCC[C@](C)(O[C@@H]1O[C@H](CO[C@@H]2OC[C@H](O)[C@H](O)[C@H]2O)[C@@H](O)[C@H](O)[C@H]1O)[C@H]1CC[C@]2(C)[C@@H]1[C@H](O)C[C@@H]1[C@@]3(C)CC[C@H](O[C@@H]4O[C@H](CO)[C@@H](O)[C@H](O)[C@H]4O[C@@H]4O[C@H](CO)[C@@H](O)[C@H](O)[C@H]4O)C(C)(C)[C@@H]3CC[C@]12C [Rb2, ginsenoside Rb2]
AUC [1, 4]: 21300 ± 6520 ng·h/mL | Cmax [1, 4]: 586 ± 95.2 ng/mL | AUC(0-inf) [1, 4]: 16600 ± 3510 ng·h/mL | MRT inf [1, 4]: 26.5 ± 6.58 h | Tmax [1, 5]: 10 ± 2.83 h | half-life [1, 6]: 1460 ± 505 min | AUC [1, 7]: 15900 ± 3310 ng·h/mL | Cmax [1, 7]: 512 ± 77.8 ng/mL | AUC(0-inf) [1, 7]: 22600 ± 6120 ng·h/mL | MRT inf [1, 7]: 29.5 ± 2.61 h | half-life [1, 8]: 1210 ± 220 min | AUCINF_obs [1, 9]: 22557 ± 6121 ng·h/mL | Cl_F_obs [1, 9]: 0.0047 ± 0.0011 L/h | Increase of AUC (AUC0-∞) by 10 continuous days administration of SLE [1, 10]: 1.33 fold | AUCINF_obs [1, 11]: 16600 ± 3511 ng·h/mL | Cl_F_obs [1, 11]: 0.0062 ± 0.0013 L/h | Effect of verapamil on intracellular accumulation [2]: no significant difference | Effect of SLE on intracellular accumulation [2]: no significant difference | P-gp substrate classification [3]: moderate P-gp substrates | Effect of verapamil on uptake (Caco-2 cells): significantly enhanced | Effect of SLE on intracellular concentration (Caco-2 cells): concentration dependently increase

CC(C)=CCC[C@](C)(O[C@@H]1O[C@H](CO[C@@H]2O[C@H](CO)[C@@H](O)[C@H](O)[C@H]2O)[C@@H](O)[C@H](O)[C@H]1O)[C@H]1CC[C@]2(C)[C@@H]1[C@H](O)C[C@@H]1[C@@]3(C)CC[C@H](O[C@@H]4O[C@H](CO)[C@@H](O)[C@H](O)[C@H]4O[C@@H]4O[C@H](CO)[C@@H](O)[C@H](O)[C@H]4O)C(C)(C)[C@@H]3CC[C@]12C [Rb1, ginsenoside Rb1]
AUC [1, 4]: 25600 ± 1300 ng·h/mL | Cmax [1, 4]: 736 ± 143 ng/mL | AUC(0-inf) [1, 4]: 27000 ± 2380 ng·h/mL | MRT inf [1, 4]: 33.5 ± 7.91 h | Tmax [1, 5]: 9.6 ± 2.19 h | half-life [1, 6]: 1160 ± 497 min | AUC [1, 7]: 14100 ± 5070 ng·h/mL | Cmax [1, 7]: 430 ± 135 ng/mL | AUC(0-inf) [1, 7]: 14300 ± 5180 ng·h/mL | MRT inf [1, 7]: 28.1 ± 4.81 h | Tmax ([1]; female, Sprague-Dawley, rat, plasma, po, rats, control: vehicle once a day for 10 days, day 11 digoxin 0.5 mg/kg or GE 120 mg/kg ig, read-out: Tmax): 10 ± 4.47 h | half-life [1, 8]: 1030 ± 130 min | AUCINF_obs [1, 9]: 27017 ± 2381 ng·h/mL | Cl_F_obs [1, 9]: 0.0037 ± 0.0003 L/h | Increase of AUC (AUC0-∞) by 10 continuous days administration of SLE [1, 10]: 1.82 fold | AUCINF_obs [1, 11]: 14324 ± 5178 ng·h/mL | Cl_F_obs [1, 11]: 0.0079 ± 0.0035 L/h | Effect of verapamil on intracellular accumulation [2]: no significant difference | Effect of SLE on intracellular accumulation [2]: no significant difference | efflux ratio at 2 h, 100 µg/mL (P-gp (MDR1); [12]): > 3.5 | efflux ratio at 2 h, 100 µg/mL (P-gp (MDR1); [13]): 1.57 | Effect of verapamil on efflux ratio / Papp [3]: significantly decrease of ER | Effect of SLE on efflux ratio / transport [3]: significantly decreased | P-gp substrate classification [3]: moderate P-gp substrates | Effect of verapamil on uptake (Caco-2 cells): significantly enhanced | Effect of SLE on intracellular concentration (Caco-2 cells): concentration dependently increase

CC(C)=CCC[C@](C)(O[C@@H]1O[C@H](CO[C@@H]2O[C@@H](CO)[C@H](O)[C@H]2O)[C@@H](O)[C@H](O)[C@H]1O)[C@H]1CC[C@]2(C)[C@@H]1[C@H](O)C[C@@H]1[C@@]3(C)CC[C@H](O[C@@H]4O[C@H](CO)[C@@H](O)[C@H](O)[C@H]4O[C@@H]4O[C@H](CO)[C@@H](O)[C@H](O)[C@H]4O)C(C)(C)[C@@H]3CC[C@]12C [Rc, ginsenoside Rc]
Increase of AUC (AUC0-∞) by 10 continuous days administration of SLE ([1]; female, Sprague-Dawley, rat, in vivo): 1.16 fold | t1/2 ([1]; female, Sprague-Dawley, rat, in vivo, po): 20.81 ± 9.64 h | Tmax ([1]; female, Sprague-Dawley, rat, in vivo, po, Tmax): 11.2 ± 1.79 h | half-life ([1]; female, Sprague-Dawley, rat, in vivo, po, t1/2): 1600 ± 185 min | Effect of verapamil on intracellular accumulation [2]: no significant difference | Effect of SLE on intracellular accumulation [2]: no significant difference | efflux ratio at 2 h, 100 µg/mL (P-gp (MDR1); [12]): > 3.5 | efflux ratio at 2 h, 100 µg/mL (P-gp (MDR1); [13]): 1.42 | Effect of verapamil on efflux ratio / Papp [3]: significantly decrease of ER | Effect of SLE on efflux ratio / transport [3]: significantly decreased | P-gp substrate classification [3]: moderate P-gp substrates
